In publication PMC12717099, “Peptidoglycan recruitment by a penicillin binding protein” (Nature Communications, 2025):
Where two headings read alike, the source gives them in different places.

Key:
[1] = system: E. faecium D344SRF, Wild Type; format: cell-based, Enterococcus faecium; settings: strain Wild Type; disks Ampicillin 10 μg, Penicillin 10 U, Ceftriaxone 30 μg; BHI agar, 37 °C, 24 h; n=3
Description: E. faecium strains were streaked fresh from −80 °C stored glycerol stocks onto brain heart infusion (BHI) agar plates and incubated for 18 h at 37 °C. Strains harboring the plasmid derivatives were grown under antibiotic pressure on agar plates containing kanamycin at 1500 µg/ml. A single colony was inoculated into BHI or BHI-kanamycin (1500 µg/ml) for overnight cultures (18 h).
Antibiotic disks used were manufactured by BD BBL^TM. Disk diffusion assays were performed according to the Clinical and Laboratory Standards Institute (CLSI) guidance. Overnight cultures were inoculated into 3 ml of BHI or BHI-kanamycin (1500 µg/ml) broth with a dilution of 1:100 and incubated until an OD600 of ~0.5 was reached. The OD600 was adjusted to 0.01 to get the inoculum suspension. […] The plates were incubated at 37 °C and the zones of inhibition were measured after 24 h. All experiments were conducted in triplicate.

PBP4 = settings: for STD amplification factor, 2000: protein:peptide 1:100, 2 s saturation
Description: STD NMR experiments were carried out on 0.02 mM unlabeled PBP5T485, PBP4, and PBP2B in NMR buffer (10 mM MES pH 5.8, 25 mM NaCl) at 308 K with the peptides (SP1, SP2, SP4, SP5 and SP6 with PBP5, SP2 also with PBP4 and PBP2B) at 1:100 PBP5:peptide molar ratios using a pseudo 2D pulse sequence that leverages a shaped pulse train for saturation and selected water suppression by excitation sculpting with gradients. All STD experiments were performed at 800 MHz for best resolution and least signal overlap. Total saturation time for STD measurements was 2 s. A 2 s recycling delay, and 64 scans were used for all STD experiments. Selective protein saturation was achieved by setting the on-resonance frequency on PBP5 methyl peaks at 0.73 ppm. For the off-resonance (reference) spectrum, the irradiation frequency was shifted to −40 ppm. […] LTotal/PTotal is the ligand excess relative to a constant protein concentration.
For a uniform analysis, we normalized the STD amplification factor by using the highest STD amplification factor in the SP1:PBP5 analysis and using the same STD amplification factor to normalize other SPs (SP2-6) to allow for a rigorous comparison. For the analysis of the STD NMR data only data from non-exchangeable protons (CH groups) were utilized. Overlapped peaks were completely excluded from the analysis.

PBP2B = test: 1D 1H STD NMR of SP2 with PBP2B; format: binding, E. faecalis; settings: for STD amplification factor, 2000: protein:peptide 1:100, 2 s saturation
Description: (§1) Total saturation time for STD measurements was 2 s.
(§2) Overlapped peaks were completely excluded from the analysis.

PBP5-S422A = test: 1D 1H STD NMR of SP2 with PBP5-S422A; format: binding, Enterococcus faecium; settings: for STD amplification factor, 2000: 2 s saturation
Description: as §1, §2

## CO/N=C(\C(=O)N[C@@H]1C(=O)N2C(C(=O)O)=C(CSc3nc(=O)c(=O)[nH]n3C)CS[C@H]12)c1csc(N)n1 [Ceftriaxone, ceftriaxone]
[1]
  Zone Size (mm) [Range]: 20 [20-26] mm

## D-Lac-L-Ala-D-iGln-L-Lys(D-iAsn) [SP2]
PBP4; 1H DLacβ
  STD % to SP1: 28.7108%
  STD amplification factor as fraction of highest SP1:PBP5 value: 0.2871
  STD amplification factor, 2000: 7.726
PBP4; 1H DQ2β (first listed)
  STD % to SP1: 57.5161%
  STD amplification factor as fraction of highest SP1:PBP5 value: 0.5752
  STD amplification factor, 2000: 15.4766
PBP4; 1H DQ2β (second listed)
  STD % to SP1: 62.3639%
  STD amplification factor as fraction of highest SP1:PBP5 value: 0.6236
  STD amplification factor, 2000: 16.7811
PBP4; 1H DQ2γ
  STD % to SP1: 18.9556%
  STD amplification factor as fraction of highest SP1:PBP5 value: 0.1896
  STD amplification factor, 2000: 5.101
PBP4; 1H K3α
  STD % to SP1: 41.8044%
  STD amplification factor as fraction of highest SP1:PBP5 value: 0.418
  STD amplification factor, 2000: 11.2489
PBP4; 1H K3β
  STD % to SP1: 89.5852%
  STD amplification factor as fraction of highest SP1:PBP5 value: 0.8959
  STD amplification factor, 2000: 24.1059
PBP4; 1H K3γ
  STD % to SP1: 46.145%
  STD amplification factor as fraction of highest SP1:PBP5 value: 0.4615
  STD amplification factor, 2000: 12.4169
PBP4; 1H K3δ
  STD % to SP1: 58.6188%
  STD amplification factor as fraction of highest SP1:PBP5 value: 0.5862
  STD amplification factor, 2000: 15.7734
PBP4; 1H K3ε
  STD % to SP1: 16.4854%
  STD amplification factor as fraction of highest SP1:PBP5 value: 0.1649
  STD amplification factor, 2000: 4.436
PBP4; 1H LA1α
  STD % to SP1: 41.4108%
  STD amplification factor as fraction of highest SP1:PBP5 value: 0.4141
  STD amplification factor, 2000: 11.143
PBP4; 1H LA1β
  STD % to SP1: 30.5144%
  STD amplification factor as fraction of highest SP1:PBP5 value: 0.3051
  STD amplification factor, 2000: 8.211
PBP4; 1H iNα,DQ2α
  STD % to SP1: 21.1266%
  STD amplification factor as fraction of highest SP1:PBP5 value: 0.2113
  STD amplification factor, 2000: 5.685
PBP4; 1H iNβ
  STD % to SP1: 26.2423%
  STD amplification factor as fraction of highest SP1:PBP5 value: 0.2624
  STD amplification factor, 2000: 7.061
PBP2B; 1H DLacβ
  STD % to SP1: 24.9553%
  STD amplification factor as fraction of highest SP1:PBP5 value: 0.2496
  STD amplification factor, 2000: 6.715
PBP2B; 1H DQ2β (first listed)
  STD % to SP1: 52.517%
  STD amplification factor as fraction of highest SP1:PBP5 value: 0.5252
  STD amplification factor, 2000: 14.1315
PBP2B; 1H DQ2β (second listed)
  STD % to SP1: 59.0483%
  STD amplification factor as fraction of highest SP1:PBP5 value: 0.5905
  STD amplification factor, 2000: 15.8889
PBP2B; 1H DQ2γ
  STD % to SP1: 22.6012%
  STD amplification factor as fraction of highest SP1:PBP5 value: 0.226
  STD amplification factor, 2000: 6.082
PBP2B; 1H K3α
  STD % to SP1: 41.2007%
  STD amplification factor as fraction of highest SP1:PBP5 value: 0.412
  STD amplification factor, 2000: 11.0865
PBP2B; 1H K3β
  STD % to SP1: 85.7339%
  STD amplification factor as fraction of highest SP1:PBP5 value: 0.8573
  STD amplification factor, 2000: 23.0696
PBP2B; 1H K3γ
  STD % to SP1: 40.677%
  STD amplification factor as fraction of highest SP1:PBP5 value: 0.4068
  STD amplification factor, 2000: 10.9455
PBP2B; 1H K3δ
  STD % to SP1: 54.3796%
  STD amplification factor as fraction of highest SP1:PBP5 value: 0.5438
  STD amplification factor, 2000: 14.6327
PBP2B; 1H K3ε
  STD % to SP1: 13.0751%
  STD amplification factor as fraction of highest SP1:PBP5 value: 0.1308
  STD amplification factor, 2000: 3.518
PBP2B; 1H LA1α
  STD % to SP1: 44.8726%
  STD amplification factor as fraction of highest SP1:PBP5 value: 0.4487
  STD amplification factor, 2000: 12.0745
PBP2B; 1H LA1β
  STD % to SP1: 28.2398%
  STD amplification factor as fraction of highest SP1:PBP5 value: 0.2824
  STD amplification factor, 2000: 7.599
PBP2B; 1H iNα,DQ2α
  STD % to SP1: 20.0674%
  STD amplification factor as fraction of highest SP1:PBP5 value: 0.2007
  STD amplification factor, 2000: 5.4
PBP2B; 1H iNβ
  STD % to SP1: 22.5751%
  STD amplification factor as fraction of highest SP1:PBP5 value: 0.2258
  STD amplification factor, 2000: 6.075
PBP5-S422A; 1H DLacβ
  STD % to SP1: 42.7391%
  STD amplification factor as fraction of highest SP1:PBP5 value: 0.4274
  STD amplification factor, 2000: 11.5004
PBP5-S422A; 1H DQ2β (first listed)
  STD % to SP1: 84.4303%
  STD amplification factor as fraction of highest SP1:PBP5 value: 0.8443
  STD amplification factor, 2000: 22.7188
PBP5-S422A; 1H DQ2β (second listed)
  STD % to SP1: 106.599%
  STD amplification factor as fraction of highest SP1:PBP5 value: 1.066
  STD amplification factor, 2000: 28.6841
PBP5-S422A; 1H DQ2γ
  STD % to SP1: 33.2164%
  STD amplification factor as fraction of highest SP1:PBP5 value: 0.3322
  STD amplification factor, 2000: 8.938
PBP5-S422A; 1H K3α
  STD % to SP1: 52.4105%
  STD amplification factor as fraction of highest SP1:PBP5 value: 0.5241
  STD amplification factor, 2000: 14.1028
PBP5-S422A; 1H K3β
  STD % to SP1: 115.403%
  STD amplification factor as fraction of highest SP1:PBP5 value: 1.154
  STD amplification factor, 2000: 31.053
PBP5-S422A; 1H K3γ
  STD % to SP1: 71.5712%
  STD amplification factor as fraction of highest SP1:PBP5 value: 0.7157
  STD amplification factor, 2000: 19.2587
PBP5-S422A; 1H K3δ
  STD % to SP1: 86.8848%
  STD amplification factor as fraction of highest SP1:PBP5 value: 0.8688
  STD amplification factor, 2000: 23.3793
PBP5-S422A; 1H K3ε
  STD % to SP1: 15.5454%
  STD amplification factor as fraction of highest SP1:PBP5 value: 0.1555
  STD amplification factor, 2000: 4.183
PBP5-S422A; 1H LA1α
  STD % to SP1: 31.0506%
  STD amplification factor as fraction of highest SP1:PBP5 value: 0.3105
  STD amplification factor, 2000: 8.355
PBP5-S422A; 1H LA1β
  STD % to SP1: 44.3762%
  STD amplification factor as fraction of highest SP1:PBP5 value: 0.4438
  STD amplification factor, 2000: 11.9409
PBP5-S422A; 1H iNα,DQ2α
  STD % to SP1: 24.4286%
  STD amplification factor as fraction of highest SP1:PBP5 value: 0.2443
  STD amplification factor, 2000: 6.573
PBP5-S422A; 1H iNβ
  STD % to SP1: 38.4337%
  STD amplification factor as fraction of highest SP1:PBP5 value: 0.3843
  STD amplification factor, 2000: 10.3419
